Patent US9156790B2, “Anticancer P21-activated kinase inhibitors” (Ohio State Innovation Foundation, priority 2013, dated 2015)

Key:
[1] = molecular target: PKBγ (Homo sapiens, UniProt Q9Y243); assay: Kinase profiling panel: PKBγ; type: biochemical; conditions: 5 μM compound; for remaining activity at 5 µM: average of triplicate, read-out: % activity vs. DMSO, PKBγ
Experimental: (§1) To further probe the selectivity of the compounds 4 and 15, they were subjected for kinase profiling service for screening against a panel of other kinases selected based on the kinase tree at 5 μM concentration, at or above the IC50 for the two compounds versus PAK in both in vitro and cell-based assays. […] PAK1 was not available for testing using this system thus it was not possible to compare directly in this assay system.

[2] = test system: BCPAP cells; assay: MTT cell viability assay, BCPAP; type: cell-based, Human; conditions: Homo sapiens, BCPAP, 72-hours of exposure, 1% FBS, mean±standard deviation (n=3), read-out: IC50 for reducing viability of BCPAP cells versus DMSO control
Text: Human thyroid cancer BCPAP, TPC1, and FTC133 cell lines were the generous gifts of Drs. Rebecca Schweppe and Bryan Haugen (University of Colorado Denver) (Schweppe et al., The Journal of clinical endocrinology and metabolism 83:4331-4341 (2008)) with permission from the following originating laboratories: BCPAP—Dr. Fabien, Centre Hospitalier Lyon-Sud, France (Fabien et al., Cancer 73:2206-2212 (1994)); TPC1—Dr. Sato, Kanazawa University, Japan (Tanaka et al., Virology 161:62-411 (1987)); and FTC133—Dr. Goretzki, University of Leipzig, Germany (Goretzki et al., Recent Results Cancer Res 118:48-63 (1990)). The obtained cell lines were confirmed for identity by DNA fingerprinting. BCPAP was grown in RPMI 1640 medium (Life Technologies Co., Carlsbad, Calif.) while FTC133 and TPC1 were grown in DMEM (Life Technologies Co.), both supplemented with 10% fetal bovine serum (FBS) and NEAA unless as noted for experiments.
The effect of OSU-03012 and its derivatives on cell viability was assessed by using the 3-(4,5-dimethylthiazol-2-yl)-2,5-diphenyl-2H-tetrazolium bromide (MTT) assay. Three replicates were performed in each individual experiment, and experiments were repeated at least three separate times. Cells were grown in 96-well plates for 24 hours and were exposed to various concentrations of drugs dissolved in DMSO (final concentration 0.1%) in RPMI 1640 or DMEM containing 1% FBS for 72 hours. 10 μL of 0.5 mg/ml MTT was added to each well and cells were incubated in CO2 at 37° C. for 2 hours. Supernatants were removed from the wells, the reduced MTT dye was solubilized in 100 μL of solution C (12 ml of 1N HCl in 300 mL of isopropanol), and absorbance at 570 nm was determined on a microplate reader.
We assessed the ability of the compounds to reduce cell viability in vitro by MTT assay after 72 hours of continuous exposure. Results are shown in Table 1 and are depicted as the IC50 vs. simultaneously performed DMSO control.
^aThe reported IC50 values are concentrations at which BCPAP, FTC133 and TPC1 cell viability by MTT assays 50% of DMSO control after 72-hours of exposure. Data are presented as mean±standard deviation (n=3). PAK and PDK1 Selectivity In Vivo

[3] = molecular target: PAK5 (Homo sapiens, UniProt Q9P286); assay: Kinase profiling panel: PAK5; type: biochemical; conditions: 5 μM compound; average of triplicate
Experimental: as §1

[4] = molecular target: LIMK1 (Homo sapiens, UniProt P53667); assay: Kinase profiling panel: LIMK1; type: biochemical; conditions: 5 μM compound; average of triplicate
Experimental: as §1

[5] = molecular target: PKA (Homo sapiens, UniProt P17612); assay: Kinase profiling panel: PKA; type: biochemical; conditions: 5 μM compound; average of triplicate
Experimental: as §1

[6] = molecular target: FGFR2 (Homo sapiens, UniProt P21802); assay: Kinase profiling panel: FGFR2; type: biochemical; conditions: 5 μM compound; average of triplicate
Experimental: as §1

[7] = test system: PAK phosphorylation of Vimentin (Ser56); assay: Western blot, PAK phosphorylation of Vimentin (Ser56) in thyroid cancer cells; type: cell-based, Human; conditions: for PAK phosphorylation of vimentin (Western blot): 7.5 μM, 6 h, FTC133 and TPC1 cells (FIG. 3); for PAK phosphorylation of vimentin (Western blot) / Dose-dependency of PAK inhibition (Vimentin phosphorylation): BCPAP; for IC50: Homo sapiens, cell-based assays, read-out: IC50 versus PAK, cell-based; for Dose-dependency of PAK inhibition (Vimentin phosphorylation): dose-response, 6 hours, FTC133 and TPC1 cells (FIG. 4A)
Experimental: Protein isolation and Western blot were performed as previously described. Ringel et al., Cancer research 61:6105-6111 (2001). 25 μg of total cell lysates were loaded into 4-12% SDS-PAGE, electrophoresed, and transferred to nitrocellulose membranes for immunoblotting. Primary antibodies against Akt (#9272), phospho-Akt (Thr308) (#2965), p44/42 MAPK (Erk1/2) (#9107), phospho-p44/42 MAPK (Erk1/2) (Thr202/Tyr204) (#4377) and GAPDH (#2118) were obtained from Cell Signaling Technology (Danvers, Mass., USA). Antibody against Vimentin (V6630) and phospho-Ser55 Vimentin were from Sigma-Aldrich, Inc. (St. Louis, Mo.) and MBL Co. (Nagoya, Japan), respectively. Antibodies against total and phosphorylated S6 were from Cell Signaling Technology®.
The ability of the compounds with in vitro anti-PAK1 activity was assessed for activity […] in thyroid cancer cells. In addition, because the compounds are based on the structure of a PDK1 inhibitor, PDK1 inhibitory activity was also assessed. Inhibitory activity in cells was estimated using Western blot with primary antibodies directed against kinase-specific phosphorylation sites; serine 56 of vimentin for PAK and threonine 308 of Akt for PDK1. BCPAP, TPC1, and FTC133 thyroid cancer cells were utilized. BCPAP and TPC1 are derived from PTC and have BRAF V600E and RET/PTC1 rearrangements, respectively. FTC133 is derived from a follicular thyroid cancer with an inactivating mutation of PTEN. Similar to the kinase screening assay, cells were treated with the six compounds or OSU-03012 at 7.5 μM concentration or with DMSO vehicle alone. The results were not entirely consistent across the three cell lines presumably related to mutation status or other factors. OSU-03012 inhibited both PDK1 and PAK-mediated phosphorylation of targets as predicted.
The dose-dependency of compounds 4 and 15 was next assessed (FIG. 4). […] Due to the important role that ERK activation plays in thyroid cancer, and its signaling activation by thyroid oncogenes, the effects of the compounds on ERK phosphorylation was also assessed.

PKBγ, sequence (Q9Y243 whole entry, species assumed): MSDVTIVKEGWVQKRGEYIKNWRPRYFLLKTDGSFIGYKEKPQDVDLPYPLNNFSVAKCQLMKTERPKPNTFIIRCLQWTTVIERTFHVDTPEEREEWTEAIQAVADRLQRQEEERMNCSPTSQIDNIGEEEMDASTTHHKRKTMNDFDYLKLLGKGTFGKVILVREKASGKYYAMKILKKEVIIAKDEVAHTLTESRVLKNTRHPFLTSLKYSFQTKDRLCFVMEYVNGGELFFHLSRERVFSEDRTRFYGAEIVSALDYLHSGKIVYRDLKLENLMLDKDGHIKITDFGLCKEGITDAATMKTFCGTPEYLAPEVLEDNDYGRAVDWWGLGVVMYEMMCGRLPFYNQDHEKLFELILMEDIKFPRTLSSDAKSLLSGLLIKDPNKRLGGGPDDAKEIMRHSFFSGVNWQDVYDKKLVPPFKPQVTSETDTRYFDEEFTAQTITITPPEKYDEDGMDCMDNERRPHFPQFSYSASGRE
PAK5, sequence (Q9P286 whole entry): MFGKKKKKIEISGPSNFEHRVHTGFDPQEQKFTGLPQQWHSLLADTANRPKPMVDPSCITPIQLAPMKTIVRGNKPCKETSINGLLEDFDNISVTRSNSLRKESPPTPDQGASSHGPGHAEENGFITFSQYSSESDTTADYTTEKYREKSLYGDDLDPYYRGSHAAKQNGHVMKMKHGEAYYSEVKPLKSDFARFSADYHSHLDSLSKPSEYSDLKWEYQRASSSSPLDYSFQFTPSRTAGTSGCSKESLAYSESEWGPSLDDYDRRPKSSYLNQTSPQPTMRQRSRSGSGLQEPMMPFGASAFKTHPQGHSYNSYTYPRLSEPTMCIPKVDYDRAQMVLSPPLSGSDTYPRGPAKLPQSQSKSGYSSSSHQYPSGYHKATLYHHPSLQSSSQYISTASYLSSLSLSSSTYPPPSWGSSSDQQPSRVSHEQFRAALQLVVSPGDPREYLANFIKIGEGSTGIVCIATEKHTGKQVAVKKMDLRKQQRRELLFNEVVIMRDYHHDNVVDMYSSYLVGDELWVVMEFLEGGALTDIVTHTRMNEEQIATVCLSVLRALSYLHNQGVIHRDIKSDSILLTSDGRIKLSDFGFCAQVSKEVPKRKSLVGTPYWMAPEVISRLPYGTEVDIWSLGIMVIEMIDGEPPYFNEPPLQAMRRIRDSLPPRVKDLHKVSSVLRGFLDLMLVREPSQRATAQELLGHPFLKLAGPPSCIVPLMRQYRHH
LIMK1, sequence (P53667 whole entry, species assumed): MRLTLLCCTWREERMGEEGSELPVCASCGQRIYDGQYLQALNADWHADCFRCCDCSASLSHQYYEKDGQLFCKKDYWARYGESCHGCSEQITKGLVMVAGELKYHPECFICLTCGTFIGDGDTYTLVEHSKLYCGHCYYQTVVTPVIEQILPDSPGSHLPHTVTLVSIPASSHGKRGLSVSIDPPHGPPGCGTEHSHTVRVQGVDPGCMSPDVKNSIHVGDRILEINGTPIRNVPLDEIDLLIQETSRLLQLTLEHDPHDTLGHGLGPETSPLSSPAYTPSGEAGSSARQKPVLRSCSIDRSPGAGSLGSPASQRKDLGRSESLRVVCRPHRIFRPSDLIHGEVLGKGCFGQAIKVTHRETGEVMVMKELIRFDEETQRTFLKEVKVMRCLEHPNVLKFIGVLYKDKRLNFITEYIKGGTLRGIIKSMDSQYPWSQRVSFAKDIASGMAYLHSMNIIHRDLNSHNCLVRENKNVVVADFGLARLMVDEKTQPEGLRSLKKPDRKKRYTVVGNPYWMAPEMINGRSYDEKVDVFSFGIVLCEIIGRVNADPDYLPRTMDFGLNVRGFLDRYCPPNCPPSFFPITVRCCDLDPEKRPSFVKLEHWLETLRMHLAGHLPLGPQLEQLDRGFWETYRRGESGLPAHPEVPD
FGFR2, sequence (P21802 22-821, species assumed): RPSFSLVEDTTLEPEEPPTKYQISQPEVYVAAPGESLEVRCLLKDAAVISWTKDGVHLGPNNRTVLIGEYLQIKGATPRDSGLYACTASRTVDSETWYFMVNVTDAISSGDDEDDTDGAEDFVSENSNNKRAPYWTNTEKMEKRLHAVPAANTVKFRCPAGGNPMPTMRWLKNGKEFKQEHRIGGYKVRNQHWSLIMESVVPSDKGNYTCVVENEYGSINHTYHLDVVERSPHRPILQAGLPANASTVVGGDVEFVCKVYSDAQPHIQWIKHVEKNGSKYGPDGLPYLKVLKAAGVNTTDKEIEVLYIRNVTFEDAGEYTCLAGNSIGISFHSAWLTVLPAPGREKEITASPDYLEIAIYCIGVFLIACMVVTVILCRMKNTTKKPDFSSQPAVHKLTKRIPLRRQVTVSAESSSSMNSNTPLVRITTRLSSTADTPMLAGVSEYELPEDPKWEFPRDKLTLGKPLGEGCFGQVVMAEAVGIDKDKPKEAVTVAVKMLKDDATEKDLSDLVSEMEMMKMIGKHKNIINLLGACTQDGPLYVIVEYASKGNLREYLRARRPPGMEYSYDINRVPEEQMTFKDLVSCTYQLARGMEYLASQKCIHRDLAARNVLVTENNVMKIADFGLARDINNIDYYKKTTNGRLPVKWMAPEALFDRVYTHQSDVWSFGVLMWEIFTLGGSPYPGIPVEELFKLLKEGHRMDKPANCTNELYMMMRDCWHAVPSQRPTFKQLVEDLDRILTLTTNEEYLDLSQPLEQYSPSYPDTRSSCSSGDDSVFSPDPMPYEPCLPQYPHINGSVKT

| SMILES | inhibition at 5 µM [1] | remaining activity at 5 µM [1] | IC50 [2] | % activity vs. DMSO, PAK5 [3] | % activity vs. DMSO, LIMK1 [4] | % activity vs. DMSO, PKA [5] | % activity vs. DMSO, FGFR2 [6] | PAK phosphorylation of vimentin (Western blot) [7] | IC50 [7] | Dose-dependency of PAK inhibition (Vimentin phosphorylation) [7] |
| --- | --- | --- | --- | --- | --- | --- | --- | --- | --- | --- |
| NCCC(=O)Nc1ccc(-n2nc(C(F)(F)F)cc2-c2ccc3ccc4ccccc4c3c2)cc1 [Compound 4, 3-amino-N-(4-(5-(phenanthren-3-yl)-3-(trifluoromethyl)-1H-pyrazol-1-yl)phenyl)-propanamide] | > 50% | 33% | 2070 ± 60 nM | 114% | 130% | 110% | 92% | inhibited PAK | ≤ 5000 nM | inhibited PAK1 in a dose dependent manner |
| CC(C)NC(=O)c1cc(-c2ccc3ccc4ccccc4c3c2)n(-c2ccc(NC(=O)CN)cc2)n1 [Compound 15, 1-(4-(2-Aminoacetamido)phenyl)-N-isopropyl-5-(phenanthren-3-yl)-1H-pyrazole-3-carboxamide] |  | 56% | 1490 ± 680 nM | 104% | 117% | 119% | 99% | inhibited PAK | ≤ 5000 nM | inhibited PAK1 in a dose dependent manner |
